Patent US20220347171A1, “TREATMENT OF PRURIGO NODULARIS” (TREVI THERAPEUTICS, INC., priority 2016, published 2022)
Counter-ions that a name gives are not always drawn.

What was measured:
[1] = system: prurigo nodularis patients; test: Double-blind, placebo-controlled trial in prurigo nodularis patients (Example 2): 7-day average daily Worst Itching Intensity NRS (0-10); assay type: in vivo, human
Description: This clinical study was a double-blind, placebo-controlled trial in which prurigo nodularis patients were randomized in a 1:1:1 ratio to nalbuphine ER tablets to a target dose of 90 mg twice daily (BID), nalbuphine HCl ER tablets 180 mg BID, or placebo tablets BID. Use of nonsedating rescue antihistamine medications (non-first generation H1-antihistamines [Simons F E. Advances in H1-antihistamines. N Engl J Med. 2004; 351(21):2203-17.]) were allowed in the study but their use was recorded. Cleansing emollients were allowed for hygiene purposes provided there were no active substances (such as menthol or urea) contained in the lotion. A placebo comparator was chosen because there are no approved treatments for prurigo nodularis in the United States or Europe or an established standard of care that could serve as an active control.
The primary objectives were to evaluate the effects of two doses of nalbuphine HCl ER tablets on the 7-day average daily worst itch (i.e., most severe) intensity using a Worst Itching Intensity Numerical Rating Scale (NRS, 0 [no itching]-10 [worst possible itching]; range, 0-10; anchors at 0 “no itching”; 4-6 “moderate itching”; and 10 “worst possible itching”) (FIG. 1) as well as safety and tolerability. The study was conducted at four North American sites and four European sites. The Sponsor oversaw the conduct of the trial and an independent unblinded Data Safety Monitoring Board reviewed safety data approximately once a month during the conduct of the trial.
The initial primary endpoint was the proportion of patients who achieved at least 30% reduction threshold in 7-day average daily diary-reported worst itch intensity NRS score from baseline to Week 10/last observed post-baseline value (LOV). For the primary endpoint, a responder was a patient who achieved at least 30% reduction threshold in 7-day average daily diary-reported worst itch intensity NRS score from baseline to Week 10/last observed post-baseline value (LOV).
Before study completion and unblinding, however, a more substantial 50% NRS reduction criterion was added as an important definition of response. For this criterion, a responder was a patient who achieved at least 50% reduction threshold in 7-day average daily diary-reported worst itch intensity NRS score from baseline to Week 10/last observed post-baseline value (LOV).
The modified intent-to-treat (MITT) population consisted of all randomly assigned patients who provided a baseline calculated NRS and at least one post-baseline NRS during randomized treatment. Patients were analyzed according to the treatment to which they were randomly assigned.
The primary worst itch NRS endpoint was evaluated by the calculation of proportions, and statistical testing of each nalbuphine dose and placebo was undertaken using a stratified categorical method, the Cochran-Mantel-Haenszel test that took into account site. Specifically, each nalbuphine group was compared to placebo in the form of a stratified (by site) 2×2 table with a P value reported for the nalbuphine HCl ER 180 mg BID versus placebo comparison and a P value separately reported for the nalbuphine HCl ER 90 mg BID versus placebo comparison. The lower nalbuphine dose versus placebo P value was evaluated only if the higher nalbuphine dose versus placebo P value was statistically significant at the 0.05 level. Data from all post-baseline visits were used to fit the model.
In the first 2 weeks of treatment, patients were blindly force-titrated to their assigned target dose, with the patients in the active arms reaching a dose of 90 mg BID (NAL 90) and, for those in the high dose group, to 180 mg BID (NAL 180) in the second week. Study drug was administered in blister cards containing the labeled morning and evening doses for each day of the week. Subsequently, patients continued stable doses of the study drug for an additional 8 weeks and were then washed off study drug and followed for another 2 weeks for itching intensity and safety.

[2] = system: prurigo nodularis patients; test: TR03ext (Example 3), titrated 30 mg QD to 180 mg BID: ItchyQoL Total Score; assay type: in vivo, human; conditions: Baseline 75.2 (15.1)
Excerpt: This clinical study was a Phase 2 Open Label Extension Study (clinical study TR03ext) of the randomized, double-blind, 3-parallel arm, placebo controlled dose ranging study described in Example 2. All those subjects who were randomized, and then completed Example 2 study, were eligible to participate in the Extension Study.
The primary endpoint was a description of the overall incidence and nature of Treatment-Emergent AEs (TEAES) during weeks 5-50 of the study. Exploratory efficacy endpoints included Change from Baseline patient reported outcome measures of Worst itch NRS, itchy VRS and ItchyQoL, by Treatment Period study visit and Baseline NRS score. There was also an assessment of any potential skin lesion changes over time using the metrics of the PAS.
Of the 63 patients that were randomized to the study of Example 2, 36 subjects who enrolled into Extension Study entered the Treatment Period of the study and were exposed to nalbuphine HCl ER tablet administration and are the basis of the study safety population analysis.
Patients in Extension Study were titrated over a dose range of 30 mg QD to 180 mg BID based on tolerability. The selected dose range was based on Example 2 study whereby patients were titrated from a 30 mg QD dose either to 30 mg BID, 60 mg BID, 90 mg BID, 120 mg BID or a 180 mg BID dose. The highest dose proposed was 180 mg BID (360 mg daily dose), and was well below the highest recommended daily treatment of 160 mg IV (equivalent to 960 mg oral) for the current marketed parenteral administered product.
The study duration for each patient was up to 52 weeks, with up to 50 weeks on study drug. The Extension Study consisted of a Treatment Period (that was followed by a Washout Safety Follow-up Period) and an Observation Period. Patients either entered directly into a drug Treatment Period (NRS >5) or a no-drug Observation Period (NRS ≤5) based on their reported NRS scores on the first Visit (Visit 1a). For up to 12 Extended Screening weeks, patients in the no-drug Observation Period could have also transitioned into the drug Treatment Period if their NRS increased to NRS >5. All patients entering the Treatment Period, whether immediately upon study entry or following a period of time in the Observation Period, were titrated to a dose ranging between 30 mg up to 180 mg BID, the highest dose tested in Example 2.

Oc1ccc2c3c1OC1[C@@H](O)CC[C@@]4(O)[C@@H](C2)N(CC2CCC2)CC[C@]314 (stereo partly drawn) [Nalbuphine, 17-(cyclobutylmethyl)-4,5α-epoxymorphinian-3, 6α, 14-triol, hydrochloride]
Responders: at least 30% reduction in 7-day average daily diary-reported worst itch intensity NRS score from baseline ([1]; 90 mg BID, Week 10 - LOV, MITT N=22, P value 0.779 vs placebo): 6 (27.3) N (%)
Responders: at least 50% reduction in 7-day average daily diary-reported worst itch intensity NRS score from baseline ([1]; 90 mg BID, Week 10 - LOV, MITT N=22, p-value 0.981 vs placebo): 3 (13.6%) N (%)
Responders: at least 30% reduction in 7-day average daily diary-reported worst itch intensity NRS score from baseline ([1]; 90 mg BID, Week 10 - completer, N=18, P value 0.723 vs placebo): 6 (33.3) N (%)
Responders: at least 50% reduction in 7-day average daily diary-reported worst itch intensity NRS score from baseline ([1]; 90 mg BID, Week 10 - completer, N=18, p-value 0.649 vs placebo): 2 (11.1%) N (%)
Responders: at least 30% reduction in 7-day average daily diary-reported worst itch intensity NRS score from baseline ([1]; 180 mg BID, Week 10 - LOV, MITT N=18, P value 0.323 vs placebo): 8 (44.4) N (%)
Responders: at least 50% reduction in 7-day average daily diary-reported worst itch intensity NRS score from baseline ([1]; 180 mg BID, Week 10 - LOV, MITT N=18, p-value 0.083 vs placebo): 6 (33.3%) N (%)
Responders: at least 30% reduction in 7-day average daily diary-reported worst itch intensity NRS score from baseline ([1]; 180 mg BID, Week 10 - completer, N=12, P value 0.026 vs placebo): 9 (75.0) N (%)
Responders: at least 50% reduction in 7-day average daily diary-reported worst itch intensity NRS score from baseline ([1]; 180 mg BID, Week 10 - completer, N=12, p-value 0.028 vs placebo): 6 (50%) N (%)
Mean Change from Baseline to the Last Observation in the Worst Itching NRS versus placebo ([1]; 180 mg BID, patients who completed the study, P=0.025): statistically significant difference
ItchyQoL Total Score Visit Mean (SD) ([2]; Study Week 3, N=33): 70.3 (18.7)
ItchyQoL Total Score Visit Mean (SD) ([2]; Study Week 5, N=31): 67.8 (19.0)
ItchyQoL Total Score Visit Mean (SD) ([2]; Study Week 9, N=28): 65.8 (18.5)
ItchyQoL Total Score Visit Mean (SD) ([2]; Study Week 13, N=24): 65.7 (17.4)
ItchyQoL Total Score Visit Mean (SD) ([2]; Study Week 17, N=24): 63.5 (19.4)
ItchyQoL Total Score Visit Mean (SD) ([2]; Study Week 21, N=21): 62.6 (18.0)
ItchyQoL Total Score Visit Mean (SD) ([2]; Study Week 26, N=20): 59.4 (16.8)
ItchyQoL Total Score Visit Mean (SD) ([2]; Study Week 30, N=19): 60.8 (18.9)
ItchyQoL Total Score Visit Mean (SD) ([2]; Study Week 34, N=17): 62.2 (15.2)
ItchyQoL Total Score Visit Mean (SD) ([2]; Study Week 38, N=16): 61.9 (16.1)
ItchyQoL Total Score Visit Mean (SD) ([2]; Study Week 42, N=16): 63.4 (15.3)
ItchyQoL Total Score Visit Mean (SD) ([2]; Study Week 46, N=16): 62.4 (14.1)
ItchyQoL Total Score Visit Mean (SD) ([2]; Study Week 50, N=14): 63.3 (15.9)
